Experimental findings from PMC6222614, “Disubstituted 4-Chloro-3-nitrophenylthiourea Derivatives: Antimicrobial and Cytotoxic Studies” (Molecules : A Journal of Synthetic Chemistry and Natural …, 2018) are described below.

Data set [1] concerns S. epidermidis MRSE 409/11. The experiment in a line: MIC, hospital methicillin-resistant strain. The following applies: Staphylococcus epidermidis. Format: cell-based. Here is the method: (§1) The antimicrobial activity of the compounds was tested on Gram-positive bacteria (Staphylococcus aureus NCTC 4163, Staphylococcus aureus ATCC 25923, Staphylococcus aureus ATCC 6538, Staphylococcus aureus ATCC 29213, Staphylococcus epidermidis ATCC 12228, Staphylococcus epidermidis ATCC 35984, Enterococcus faecalis ATCC 29212, Bacillus subtilis ATCC 6633, Bacillus cereus ATCC 11778, Micrococcus luteus ATCC 9341, Micrococcus luteus ATCC 10240); Gram-negative rods (Escherichia coli ATCC 10538, Escherichia coli ATCC 25922, Escherichia coli NCTC 8196, Proteus vulgaris NCTC 4635, Pseudomonas aeruginosa ATCC 15442, Pseudomonas aeruginosa NCTC 6749, Pseudomonas aeruginosa ATCC 27863, Bordetella bronchiseptica ATCC 4617) and yeasts (Candida albicans ATCC 10231, Candida albicans ATCC 90028, Candida parapsilosis ATCC 22019). Other microorganisms used were obtained from the collection of the Department of Pharmaceutical Microbiology, Medical University of Warsaw, Poland.
(§2) Antibacterial activity was examined by the disc-diffusion method under standard conditions using Mueller-Hinton II agar medium (Becton Dickinson) according to CLSI (previously NCCLS) guidelines. Antifungal activities were assessed using Mueller-Hinton agar + 2% glucose and 0.5 µg/mL Methylene Blue Dye Medium. Sterile filter paper discs (9 mm diameter, Whatman No 3 chromatography paper) were dripped with tested compound solutions (in DMSO) to load 400 μg of a given compound per disc. Dry discs were placed on the surface of appropriate agar medium. The results (diameter of the growth inhibition zone) were read after 18 h of incubation at 35 °C. Minimal Inhibitory Concentration (MIC) was tested by the twofold serial microdilution method (in 96-well microtiter plates) using Mueller-Hinton Broth medium (Beckton Dickinson) for bacteria or RPMI-1640 medium for Candida species according to CLSI guidelines. The stock solution of tested agent was prepared in DMSO and diluted in sterile water. Concentrations of tested agents ranged from 0.125 to 512 µg/mL. The final inoculum of all studied microorganisms was 10^5 CFU/ mL^−1 (colony forming units per mL). Minimal inhibitory concentrations (the lowest concentration of a tested agent that prevents visible growth of a microorganism) were read after 18 h (bacteria) or 24 h (yeasts) of incubation at 35 °C.

The subject of data set [2] is S. epidermidis MRSE 407/11. Put plainly: MIC, hospital methicillin-resistant strain. Format: cell-based. Conditions: Staphylococcus epidermidis. Here is the method: as §1, §2
Data set [3] deals with S. epidermidis MRSE 405/11. Put plainly: MIC, hospital methicillin-resistant strain. Format: cell-based. The following applies: Staphylococcus epidermidis. Here is the method: as §1, §2
Data set [4] concerns S. epidermidis MRSE 403/11. The experiment in a line: MIC, hospital methicillin-resistant strain. Format: cell-based. Conditions: Staphylococcus epidermidis. The protocol:
as §1, §2

For data set [5], the system named is S. epidermidis MRSE 412/11. The experiment in a line: MIC, hospital methicillin-resistant strain. Format: cell-based. Conditions: Staphylococcus epidermidis. Here is the method:
as §1, §2

For data set [6], the system named is S. epidermidis MRSE 411/11. The experiment in a line: MIC, hospital methicillin-resistant strain. Conditions: Staphylococcus epidermidis. Format: cell-based. The protocol: as §1, §2
Data set [7] relates to S. epidermidis MRSE 406/11. The experiment in a line: MIC, hospital methicillin-resistant strain. Format: cell-based. The following applies: Staphylococcus epidermidis. The protocol: as §1, §2
Data set [8] deals with S. epidermidis MRSE 413/11. The experiment in a line: MIC, hospital methicillin-resistant strain. Format: cell-based. The following applies: Staphylococcus epidermidis. The protocol: as §1, §2
The test system of data set [9] is S. epidermidis MRSE 404/11. Put plainly: MIC, hospital methicillin-resistant strain. Format: cell-based. Conditions: Staphylococcus epidermidis. Here is the method:
as §1, §2

Data set [10] has as its system S. epidermidis MRSE 422/11. Put plainly: MIC, hospital methicillin-resistant strain. Format: cell-based. Conditions: Staphylococcus epidermidis. The protocol: as §1, §2
Another data set has as its system S. aureus NCTC 4163. The experiment in a line: MIC, twofold serial microdilution. Format: cell-based. Conditions: Staphylococcus aureus, NCTC4163; standard strain, 18 h, 35 °C. The protocol: as §1, §2
On the technique in general: Broth dilution looks for growth in wells or tubes with falling amounts of substance.

The test system of another data set is S. aureus ATCC 6538. Put plainly: MIC, twofold serial microdilution. Format: cell-based. The following applies: Staphylococcus aureus, ATCC6538; standard strain, 18 h, 35 °C. Here is the method: as §1, §2
The subject of data set [11] is S. epidermidis ATCC 12228. The experiment in a line: MIC, twofold serial microdilution. The following applies: Staphylococcus epidermidis, ATCC12228; standard strain, 18 h, 35 °C. Format: cell-based. Here is the method: as §1, §2
A further data set deals with M. luteus ATCC 10240. Put plainly: MIC, twofold serial microdilution. Format: cell-based. Conditions: Micrococcus luteus, ATCC10240; standard strain, 18 h, 35 °C. The protocol:
as §1, §2

In another data set the test system is S. aureus ATCC 29213. The experiment in a line: MIC, twofold serial microdilution. Format: cell-based. The following applies: Staphylococcus aureus, ATCC29213; standard strain, 18 h, 35 °C. The protocol:
as §1, §2

The next data set concerns B. subtilis ATCC 6633. Put plainly: MIC, twofold serial microdilution. Format: cell-based. The following applies: Bacillus subtilis, ATCC6633; standard strain, 18 h, 35 °C. Here is the method: as §1, §2
The test system of another data set is B. cereus ATCC 11778. Put plainly: MIC, twofold serial microdilution. Format: cell-based. Conditions: Bacillus cereus, ATCC11778; standard strain, 18 h, 35 °C. Here is the method:
as §1, §2

For data set [12], the system named is S. epidermidis ATCC 35984. Put plainly: MIC, twofold serial microdilution. Format: cell-based. Conditions: Staphylococcus epidermidis, ATCC35984; standard strain, 18 h, 35 °C. The protocol: as §1, §2
The next data set deals with M. luteus ATCC 9341. Put plainly: MIC, twofold serial microdilution. Format: cell-based. Conditions: Micrococcus luteus, ATCC9341; standard strain, 18 h, 35 °C. The protocol:
as §1, §2

The next data set relates to S. aureus ATCC 25923. Put plainly: MIC, twofold serial microdilution. Format: cell-based. The following applies: Staphylococcus aureus, ATCC25923; standard strain, 18 h, 35 °C. Here is the method: as §1, §2
The test system of the next data set is standard strains. The experiment in a line: Antimicrobial activity against set of bacterial and fungal strains. Format: cell-based. Here is the method: as §1
as §2, with “The stock solution of tested agent was prepared in DMSO and diluted in sterile water. Concentrations of tested agents ranged from 0.125 to 512 µg/mL. The final inoculum of all studied microorganisms was 10^5 CFU/ mL^−1 (colony forming units per mL).” left out

The next data set concerns HIV-1 IIIB. The experiment in a line: Anti-HIV-1 activity: protection of MT-4 cells from virus-induced cytopathogenicity (MTT). Format: cell-based, Human Immunodeficiency Virus type-1. The following applies: Human immunodeficiency virus 1, IIIB, MT4, 96 h; 50% protection of MT-4 cells from HIV-1 induced cytopathogenicity, MTT, 4-day incubation; read-out: HIV-1IIIB EC50. The text has this:
(§3) Cell line supporting the multiplication of Human Immunodeficiency Virus type-1 (HIV-1) was the CD4+ human T-cells, derived from human hematological tumors, containing an integrated HTLV-1 genome (MT-4). Cells were purchased from American Type Culture Collection (ATCC). Human Immunodeficiency Virus type-1 (HIV-1) IIIB laboratory strain was obtained from the supernatant of the persistently infected H9/IIIB cells (NIH 1983).
The activity of compounds against HIV-1 was based on inhibition of virus-induced cytopathogenicity in MT-4 cell acutely infected with a multiplicity of infection (m.o.i.) of 0.01. Briefly, 50 μL of RPMI containing 1 × 10^4 MT-4 cells were added to each well of flat-bottom microtiter trays, containing 50 μL of RPMI without or with serial dilutions of test compounds. Then, 20 μL of a HIV-1 suspension containing 100 CCID50 were added. After a 4-day incubation at 37 °C, cell viability was determined by the MTT method.
(Protection from cytopathic effect is a common read-out in antiviral testing.)

A short description of data set [13]: Cytotoxicity against mock-infected MT-4 cells (MTT). Format: cell-based, human. Conditions: human, concentration reducing viability of mock-infected MT-4 cells by 50%. Here is the method:
as §3
Exponentially growing MT-4 cells were seeded at an initial density of 1 × 10^5 cells/mL in 96-well plates in RPMI-1640 medium, supplemented with 10% fetal bovine serum (FBS), 100 units/mL penicillin G and 100 μg/mL streptomycin. Cell cultures were then incubated at 37 °C in a humidified, 5% CO2 atmosphere, in the absence or presence of serial dilutions of tested compounds. Cell viability was determined after 96 h at 37 °C by the 3-(4,5-dimethylthiazol-2-yl)-2,5-diphenyl-tetrazolium bromide (MTT) method.

Values after ≈ are worked out from the molar mass of the structure shown. Where only a bound is given, the exact number is not on record here.

The term MIC denotes the smallest concentration in the dilution series that meets the test's criterion for growth inhibition. Low values mean inhibition by little substance, high ones a need for much substance. The melting point is the temperature of the solid-liquid transition. In general, EC50 refers to the concentration at which the effect is half-maximal. Usually CC50 stands for the concentration at which the toxic effect on the cells reaches its halfway point. `Cc1ccc(NC(=S)Nc2ccc(Cl)c([N+](=O)[O-])c2)cc1` [Compound 20, 1-(4-chloro-3-nitrophenyl)-3-(4-methylphenyl)thiourea] came in with a melting point of 156 to 158 °C. The same compound registered an MIC in data set [1] of 16 µg/mL (≈ 49.7 µM). In data set [2], this compound yielded an MIC of 16 µg/mL (≈ 49.7 µM). Moreover, the lowest concentration to inhibit growth in data set [3] (MIC) was 16 µg/mL (≈ 49.7 µM). The same compound showed an MIC in [4] of 16 µg/mL (≈ 49.7 µM). Besides, the MIC in data set [5] amounted to 32 µg/mL (≈ 99.4 µM). The lowest concentration to inhibit growth in data set [6] (MIC) was 16 µg/mL (≈ 49.7 µM). This compound also registered a minimal inhibitory concentration (MIC) in [7] of 16 µg/mL (≈ 49.7 µM). Besides, in data set [8], the lowest concentration to inhibit growth (MIC) was 16 µg/mL (≈ 49.7 µM). Moreover, the MIC in [9] turned out to be 16 µg/mL (≈ 49.7 µM). Also, the lowest concentration to inhibit growth in data set [10] (MIC) was 32 µg/mL (≈ 99.4 µM). In the data set on S. aureus NCTC 4163, this compound came in with an MIC of 2 µg/mL (≈ 6.22 µM). This compound showed an MIC against S. aureus ATCC 6538 of 4 µg/mL (≈ 12.4 µM). Besides, 4 µg/mL (≈ 12.4 µM) was the least that counted as inhibitory in data set [11] (MIC). For the same compound, the MIC in the data set with M. luteus ATCC 10240 amounted to 4 µg/mL (≈ 12.4 µM). This compound also had a minimal inhibitory concentration (MIC) in the data set on S. aureus ATCC 29213 of 2 µg/mL (≈ 6.22 µM). In addition, the MIC with B. subtilis ATCC 6633 came to 4 µg/mL (≈ 12.4 µM). This compound also had an MIC in the data set with B. cereus ATCC 11778 of 4 µg/mL (≈ 12.4 µM). In [12], this compound returned an MIC of 4 µg/mL (≈ 12.4 µM). In the data set on M. luteus ATCC 9341, this compound showed an MIC of 4 µg/mL (≈ 12.4 µM). It took 2 µg/mL (≈ 6.22 µM) to inhibit growth against S. aureus ATCC 25923 (MIC). The same compound returned an MIC in the data set with standard strains (range over standard strains) of 2 to 4 µg/mL (≈ 6.22 to 12.4 µM). The EC50 in the data set on HIV-1 IIIB was > 14.6 µM. The compound also showed a CC50 at 96 h in [13] of 14.6 µM.
Regarding `COc1ccc(NC(=S)Nc2ccc(Cl)c([N+](=O)[O-])c2)cc1` [Compound 21, 1-(4-chloro-3-nitrophenyl)-3-(4-methoxyphenyl)thiourea], the melting point was in the range of 149 to 150.5 °C. Further, the “activity against tested microorganisms” value in the data set on standard strains was “devoid of activity”. The 50% effective concentration (EC50) in the data set on HIV-1 IIIB is > 35 µM. In data set [13], this compound returned a CC50 at 96 h of 35 µM.
